From patent publication US20230151025A1, “SUBSTITUTED THIAZOLOPYRIDINES, SALTS THEREOF AND THEIR USE AS HERBICIDALLY ACTIVE SUBSTANCES” (Bayer Aktiengesellschaft, priority 2020, published 2023)

Assays:
Type in all cases: in vivo
[1] = tested on: Amaranthus retroflexus (AMARE); assay: Herbicidal post-emergence action (D), 320 g/ha; conditions: ca. 3 weeks
Outline: (§1)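 Visual % herbicidal effect vs untreated controls (100% = dead, 0% = like control), rated ca. 3 weeks after post-emergence spray. Plants treated at single-leaf stage, 2 to 3 weeks after sowing in sandy loam; aqueous WP/EC spray, 0.5% additive, 600 l water/ha.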

Veronica persica (VERPE) [2] = assay: Herbicidal post-emergence action (D), 320 g/ha; conditions: ca. 3 weeks
Outline: as §1

[3] = tested on: Alopecurus myosuroides (ALOMY); assay: Herbicidal post-emergence action (D), 320 g/ha; conditions: ca. 3 weeks
Outline: as §1

[4] = tested on: Digitaria sanguinalis (DIGSA); assay: Herbicidal post-emergence action (B), 1280 g/ha; conditions: rated visually after about 3 weeks vs untreated controls
Outline: (§2)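 Post-emergence spray, one-leaf stage; WP/EC formulation, aqueous, 0.5% additive, 600 L/ha water. Sandy loam, greenhouse, doubly sown pots. Visual % rating vs untreated control at ~3 weeks (100% = dead).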

Setaria viridis (SETVI) [5] = assay: Herbicidal post-emergence action (B), 1280 g/ha; conditions: rated visually after about 3 weeks vs untreated controls
Outline: as §2

[6] = tested on: Amaranthus retroflexus (AMARE); assay: Herbicidal post-emergence action (B), 1280 g/ha; conditions: rated visually after about 3 weeks vs untreated controls
Outline: as §2

[7] = tested on: Kochia scoparia (KCHSC; Bassia scoparia); assay: Herbicidal post-emergence action (B), 1280 g/ha
Outline: as §2

Poa annua (POAAN) = assay: Herbicidal post-emergence action (B), 1280 g/ha; conditions: rated visually after about 3 weeks vs untreated controls
Outline: as §2

Veronica persica (VERPE) [8] = assay: Herbicidal post-emergence action (B), 1280 g/ha
Outline: as §2

[9] = tested on: Echinochloa crus-galli (ECHCG); assay: Herbicidal post-emergence action (B), 1280 g/ha; conditions: rated visually after about 3 weeks vs untreated controls
Outline: as §2

[10] = tested on: Alopecurus myosuroides (ALOMY); assay: Herbicidal post-emergence action (B), 1280 g/ha; conditions: rated visually after about 3 weeks vs untreated controls
Outline: as §2

Stellaria media (STEME) = assay: Herbicidal post-emergence action (B), 1280 g/ha
Outline: as §2

Lolium rigidum (LOLRI) = assay: Herbicidal pre-emergence action (C), 320 g/ha; conditions: ca. 3 weeks
Outline: (§3)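 Pre-emergence greenhouse test: visual damage rating at about 3 weeks relative to untreated plants, 100% meaning death and 0% no effect. Compounds, as wettable powders or emulsifiable concentrates with 0.5% additive, were applied at 320 g/ha (600 l water/ha) onto soil covering seeds sown in sandy loam.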

Setaria viridis (SETVI) [11] = assay: Herbicidal pre-emergence action (C), 320 g/ha; conditions: ca. 3 weeks
Outline: as §3

[12] = tested on: Amaranthus retroflexus (AMARE); assay: Herbicidal pre-emergence action (C), 320 g/ha; conditions: ca. 3 weeks
Outline: as §3

Veronica persica (VERPE) [13] = assay: Herbicidal pre-emergence action (C), 320 g/ha; conditions: ca. 3 weeks
Outline: as §3

[14] = tested on: Echinochloa crus-galli (ECHCG); assay: Herbicidal pre-emergence action (C), 320 g/ha; conditions: ca. 3 weeks
Outline: as §3

[15] = tested on: Alopecurus myosuroides (ALOMY); assay: Herbicidal pre-emergence action (C), 320 g/ha; conditions: ca. 3 weeks
Outline: as §3

[16] = tested on: Polygonum convolvulus (POLCO); assay: Herbicidal post-emergence action (D), 320 g/ha; conditions: ca. 3 weeks
Outline: as §1

[17] = tested on: Echinochloa crus-galli (ECHCG); assay: Herbicidal post-emergence action (D), 320 g/ha; conditions: ca. 3 weeks
Outline: as §1

[18] = tested on: Abutilon theophrasti (ABUTH); assay: Herbicidal post-emergence action (B), 1280 g/ha; conditions: rated visually after about 3 weeks vs untreated controls
Outline: as §2

Cc1cc2scnc2nc1-c1cccc(F)c1 [Example I-003, 5-(3-fluorophenyl)-6-methyl-thiazolo[4,5-b]pyridine]
100%: herbicidal activity AMARE [6] | herbicidal activity POAAN (Poa annua (POAAN)) | herbicidal activity ECHCG [9] | herbicidal activity ALOMY [10] | herbicidal effect STEME (Stellaria media (STEME)) | herbicidal effect LOLRI (Lolium rigidum (LOLRI)) | herbicidal effect SETVI (Setaria viridis (SETVI) [11]) | herbicidal effect ECHCG [14] | herbicidal effect ALOMY [15]
90%: herbicidal effect VERPE (Veronica persica (VERPE) [2]) | herbicidal effect ALOMY [3] | herbicidal activity DIGSA [4] | herbicidal activity SETVI (Setaria viridis (SETVI) [5]) | herbicidal effect KCHSC [7] | herbicidal effect VERPE (Veronica persica (VERPE) [8]) | herbicidal effect VERPE (Veronica persica (VERPE) [13])
80%: herbicidal effect AMARE [1] | herbicidal effect AMARE [12]

CCc1cc2scnc2nc1-c1cccc(F)c1 [Example I-029]
100%: herbicidal activity DIGSA [4] | herbicidal activity SETVI (Setaria viridis (SETVI) [5]) | herbicidal activity AMARE [6] | herbicidal activity ABUTH [18] | herbicidal effect KCHSC [7] | herbicidal activity POAAN (Poa annua (POAAN)) | herbicidal activity ECHCG [9] | herbicidal activity ALOMY [10] | herbicidal effect STEME (Stellaria media (STEME)) | herbicidal effect LOLRI (Lolium rigidum (LOLRI)) | herbicidal effect SETVI (Setaria viridis (SETVI) [11]) | herbicidal effect ECHCG [14] | herbicidal effect ALOMY [15]
90%: herbicidal effect POLCO [16] | herbicidal effect VERPE (Veronica persica (VERPE) [2]) | herbicidal effect ECHCG [17] | herbicidal effect ALOMY [3] | herbicidal effect VERPE (Veronica persica (VERPE) [8]) | herbicidal effect AMARE [12] | herbicidal effect VERPE (Veronica persica (VERPE) [13])

Fc1ccccc1-c1nc2ncsc2cc1C1CC1 [Example I-102]
90%: herbicidal activity POAAN (Poa annua (POAAN)) | herbicidal effect AMARE [12] | herbicidal effect ALOMY [15]
100%: herbicidal activity DIGSA [4] | herbicidal activity SETVI (Setaria viridis (SETVI) [5]) | herbicidal activity AMARE [6] | herbicidal effect KCHSC [7] | herbicidal effect VERPE (Veronica persica (VERPE) [8]) | herbicidal activity ECHCG [9] | herbicidal activity ALOMY [10] | herbicidal effect STEME (Stellaria media (STEME)) | herbicidal effect LOLRI (Lolium rigidum (LOLRI)) | herbicidal effect SETVI (Setaria viridis (SETVI) [11]) | herbicidal effect ECHCG [14]
80%: herbicidal effect POLCO [16] | herbicidal effect AMARE [1] | herbicidal effect VERPE (Veronica persica (VERPE) [2]) | herbicidal effect VERPE (Veronica persica (VERPE) [13])

Cc1cc2scnc2nc1-c1ccc(F)cc1F [Example I-122]
90%: herbicidal effect POLCO [16] | herbicidal effect VERPE (Veronica persica (VERPE) [2]) | herbicidal effect ALOMY [3] | herbicidal activity SETVI (Setaria viridis (SETVI) [5]) | herbicidal activity ABUTH [18] | herbicidal activity ECHCG [9] | herbicidal effect AMARE [12] | herbicidal effect VERPE (Veronica persica (VERPE) [13])
80%: herbicidal effect AMARE [1] | herbicidal effect ECHCG [17]
100%: herbicidal activity DIGSA [4] | herbicidal activity AMARE [6] | herbicidal effect KCHSC [7] | herbicidal activity POAAN (Poa annua (POAAN)) | herbicidal effect VERPE (Veronica persica (VERPE) [8]) | herbicidal activity ALOMY [10] | herbicidal effect STEME (Stellaria media (STEME)) | herbicidal effect LOLRI (Lolium rigidum (LOLRI)) | herbicidal effect SETVI (Setaria viridis (SETVI) [11]) | herbicidal effect ECHCG [14] | herbicidal effect ALOMY [15]

COc1ccccc1-c1nc2ncsc2cc1C [Example I-124]
90%: herbicidal effect VERPE (Veronica persica (VERPE) [2]) | herbicidal effect ALOMY [3] | herbicidal activity SETVI (Setaria viridis (SETVI) [5]) | herbicidal activity AMARE [6] | herbicidal activity ECHCG [9] | herbicidal effect AMARE [12] | herbicidal effect VERPE (Veronica persica (VERPE) [13])
80%: herbicidal effect ECHCG [17]
100%: herbicidal activity DIGSA [4] | herbicidal activity ABUTH [18] | herbicidal effect KCHSC [7] | herbicidal activity POAAN (Poa annua (POAAN)) | herbicidal effect VERPE (Veronica persica (VERPE) [8]) | herbicidal activity ALOMY [10] | herbicidal effect STEME (Stellaria media (STEME)) | herbicidal effect LOLRI (Lolium rigidum (LOLRI)) | herbicidal effect SETVI (Setaria viridis (SETVI) [11]) | herbicidal effect ECHCG [14] | herbicidal effect ALOMY [15]
